≈ marks a conversion by molar mass, not a printed value.
How the values were obtained:
Assay in all cases: ≥ marks a high value that may be exact or a test limit, other limits are often not marked, values filed in µg/mL are converted to µM
[1] = test system: Staphylococcus aureus ATCC 25923
[2] = test system: Candida albicans ATCC 20032
[3] = test system: Batrachochytrium dendrobatidis
[4] = test system: Bacillus subtilis ATCC 6633
[5] = test system: Escherichia coli ATCC 25922
[6] = test system: Staphylococcus aureus NCTC 8325
[7] = test system: Bacillus cereus
[8] = test system: Pasteurella multocida
[9] = test system: Staphylococcus aureus
[10] = test system: Leuconostoc lactis
[11] = test system: Streptococcus uberis
[12] = test system: Staphylococcus epidermidis
[13] = test system: Listeria innocua
[14] = test system: Micrococcus luteus
[15] = test system: Escherichia coli
[16] = test system: Pseudomonas aeruginosa PAO1
[17] = test system: Bacillus subtilis 168
[18] = test system: Staphylococcus aureus USA 300
[19] = test system: Escherichia coli K-12
[20] = test system: Staphylococcus epidermidis ATCC 12228
[21] = test system: Micrococcus luteus ATCC 10240
[22] = test system: Staphylococcus aureus TK784
[23] = test system: Staphylococcus aureus ATCC 6538P
[24] = test system: Pseudomonas aeruginosa ATCC 27853
[25] = test system: Salmonella enterica subsp. enterica serovar Typhimurium ATCC 14028
[26] = test system: Klebsiella pneumoniae ATCC 10031
[27] = test system: Shigella dysenteriae ATCC 9752
[28] = test system: Streptococcus pyogenes ATCC 19615
[29] = test system: Bacillus subtilis
[30] = test system: Klebsiella pneumoniae ATCC 13883
[31] = test system: Enterococcus faecalis ATCC 29212

Row | SMILES | MIC [1] [µM] | MIC [3] [µM] | MIC [4] [µM] | MIC [5] [µM] | MIC [20] [µM] | MIC [21] [µM] | MIC [22] [µM] | MIC [23] [µM] | MIC [24] [µM] | MIC [25] [µM] | MIC [26] [µM] | MIC [27] [µM] | further results
1 | CC[C@H](C)[C@H](NC(=O)[C@@H](NC(=O)[C@@H]1CCCN1C(=O)[C@H](CC(C)C)NC(=O)[C@@H](N)Cc1ccccc1)[C@@H](C)CC)C(=O)N[C@@H](C)C(=O)N[C@@H](CO)C(=O)N[C@@H](CC(C)C)C(=O)N[C@@H](CC(C)C)C(=O)N[C@@H](CO)C(=O)N[C@@H](CCCCN)C(=O)N[C@@H](CC(C)C)C(=O)N[C@@H](CC(C)C)C(N)=O [FLPIIASLLSKLL] | – | ≥ 32.2 | – | – | – | – | – | – | – | – | – | – | –
2 | CC[C@H](C)[C@H](NC(=O)CN)C(=O)NCC(=O)NCC(=O)N[C@@H](CCCCN)C(=O)N[C@H](C(=O)N[C@@H](CC(C)C)C(=O)NCC(=O)NCC(=O)N[C@@H](CC(C)C)C(=O)N[C@@H](CCCN=C(N)N)C(=O)N[C@H](C(=O)N[C@@H](C)C(=O)N[C@@H](CC(C)C)C(=O)N[C@@H](CCCCN)C(=O)NCC(=O)N[C@@H](C)C(=O)N[C@@H](C)C(=O)N[C@@H](CCCCN)C(=O)N[C@@H](CCC(=O)O)C(=O)N[C@@H](CC(C)C)C(=O)N[C@@H](C)C(=O)N[C@@H](C)C(=O)N[C@H](C(=O)N[C@@H](Cc1ccc(O)cc1)C(=O)N[C@@H](CC(C)C)C(=O)N[C@@H](Cc1cnc[nH]1)C(N)=O)[C@@H](C)O)[C@@H](C)O)[C@@H](C)CC [GIGGKILGGLRTALKGAAKELAATYLH] | 1.75 (≈ 4.7 µg/mL) | – | 28 (≈ 75 µg/mL) | 3.51 (≈ 9.4 µg/mL) | – | – | – | – | – | – | – | – | MIC [2]: ≥ 37.3 µM
3 | CC[C@H](C)[C@H](NC(=O)CN)C(=O)N[C@@H](CC(C)C)C(=O)N[C@@H](CO)C(=O)N[C@H](C(=O)N[C@@H](Cc1ccccc1)C(=O)N[C@@H](CCCCN)C(=O)NCC(=O)N[C@@H](CC(C)C)C(=O)N[C@@H](C)C(=O)N[C@@H](CCCCN)C(=O)NCC(=O)N[C@H](C(=O)N[C@@H](C)C(=O)N[C@@H](CCCCN)C(=O)N[C@@H](CC(=O)O)C(=O)N[C@@H](CC(C)C)C(=O)N[C@@H](C)C(=O)NCC(=O)N[C@@H](CC(N)=O)C(=O)N[C@@H](CC(C)C)C(=O)N[C@@H](CC(C)C)C(=O)N[C@@H](CC(=O)O)C(=O)N[C@@H](CCCCN)C(=O)N[C@@H](Cc1ccccc1)C(=O)N[C@@H](CCCCN)C(=O)N[C@H]1CSSC[C@@H](C(=O)O)NC(=O)CNC(=O)[C@H]([C@@H](C)O)NC(=O)[C@H]([C@@H](C)CC)NC(=O)[C@H](CCCCN)NC1=O)C(C)C)[C@@H](C)O [GILSTFKGLAKGVAKDLAGNLLDKFKCKITGC] | – | 25 (≈ 82.7 µg/mL) | – | 7 (≈ 23.2 µg/mL) | – | – | – | – | – | – | – | – | MIC [6]: 27 µM (≈ 89.3 µg/mL)
4 | CC(C)[C@H](NC(=O)[C@@H](NC(=O)[C@H](CCCCN)NC(=O)CNC(=O)[C@@H](NC(=O)[C@@H](NC(=O)[C@H](CO)NC(=O)[C@@H](NC(=O)[C@@H](NC(=O)[C@@H]1CCCN1C(=O)[C@@H](NC(=O)[C@@H](NC(=O)CN)C(C)C)C(C)C)C(C)C)C(C)C)C(C)C)C(C)C)C(C)C)C(N)=O [GVVPVVSVVGKVV] | – | – | – | – | – | – | – | – | – | – | – | – | MIC [16]: > 100 µM; MIC [17]: ≥ 100 µM; MIC [18]: ≥ 100 µM; MIC [19]: ≥ 100 µM
5 | CC(C)C[C@H](NC(=O)[C@H](CO)NC(=O)[C@H](CCCN=C(N)N)NC(=O)[C@H](CCCCN)NC(=O)[C@@H](NC(=O)[C@@H](NC(=O)CNC(=O)[C@H](CCCN=C(N)N)NC(=O)[C@H](Cc1cnc[nH]1)NC(=O)[C@H](Cc1c[nH]c2ccccc12)NC(=O)[C@H](Cc1ccccc1)NC(=O)[C@H](Cc1cnc[nH]1)NC(=O)[C@H](Cc1ccc(O)cc1)NC(=O)[C@@H](N)Cc1ccc(O)cc1)C(C)C)[C@@H](C)O)C(=O)N[C@@H](CO)C(=O)N1CCC[C@H]1C(=O)N[C@@H](Cc1cnc[nH]1)C(=O)O [YYHFWHRGVTKRSLSPH] | > 100 | – | – | – | – | – | – | – | > 100 | > 100 | – | – | MIC [28]: ≥ 100 µM; MIC [29]: ≥ 100 µM; MIC [30]: ≥ 100 µM; MIC [15]: 30 µM (≈ 65.1 µg/mL); MIC [31]: > 100 µM

Second part, led by results:

Row | MIC [1] [µM] | MIC [3] [µM] | MIC [4] [µM] | MIC [5] [µM] | MIC [20] [µM] | MIC [21] [µM] | MIC [22] [µM] | MIC [23] [µM] | MIC [24] [µM] | MIC [25] [µM] | MIC [26] [µM] | MIC [27] [µM] | SMILES | further results
6 | 11.7 (≈ 24.9 µg/mL) | – | – | – | – | – | – | – | – | – | – | – | CC[C@H](C)[C@@H]1NC(=O)[C@H](CO)NC(=O)[C@H](CCCCN)NC(=O)[C@H]([C@@H](C)O)NC(=O)[C@H](Cc2c[nH]c3ccccc23)NC(=O)[C@@H](NC(=O)CNC(=O)[C@H](CCCCN)NC(=O)[C@H](CC(C)C)NC(=O)[C@H](C)NC(=O)[C@H](C)N)CSSC[C@@H](C(=O)N[C@@H](CO)C(=O)NCC(=O)N[C@@H](CCCCN)C(=O)N[C@@H](CCCN=C(N)N)C(=O)O)NC(=O)[C@@H]2CCCN2C(=O)[C@H](CCCCN)NC(=O)[C@@H]2CCCN2C(=O)[C@@H]2CCCN2C1=O [AALKGCWTKSIPPKPCSGKR] | MIC [2]: 23.4 µM (≈ 49.8 µg/mL)
7 | – | ≥ 141 | – | – | – | – | – | – | – | – | – | – | CC[C@H](C)[C@H](NC(=O)[C@@H](NC(=O)[C@H](C)NC(=O)[C@H](C)NC(=O)[C@@H](NC(=O)[C@H](CCCCN)NC(=O)[C@H](CCCCN)NC(=O)[C@@H](NC(=O)[C@@H](NC(=O)[C@H](C)NC(=O)[C@H](Cc1ccccc1)NC(=O)[C@H](CC(C)C)NC(=O)CN)C(C)C)[C@@H](C)CC)C(C)C)C(C)C)C(=O)N[C@@H](CCCCN)C(=O)N[C@@H](CCCCN)C(=O)N[C@@H](CC(C)C)C(N)=O [GLFAVIKKVAAVIKKL] | MIC [7]: ≥ 58.9 µM; MIC [8]: ≥ 58.9 µM; MIC [9]: 14.7 µM (≈ 25 µg/mL); MIC [10]: 0.883 µM (≈ 1.5 µg/mL); MIC [11]: 7.07 µM (≈ 12 µg/mL); MIC [12]: 1.77 µM (≈ 3 µg/mL); MIC [13]: 7.07 µM (≈ 12 µg/mL); MIC [14]: 14.7 µM (≈ 25 µg/mL); MIC [15]: 58.9 µM (≈ 99.9 µg/mL)
8 | – | – | 1.42 (≈ 2 µg/mL) | 1.42 (≈ 2 µg/mL) | 1.42 (≈ 2 µg/mL) | 2.84 (≈ 4 µg/mL) | 11.3 (≈ 16 µg/mL) | 1.42 (≈ 2 µg/mL) | 5.67 (≈ 7.99 µg/mL) | 2.84 (≈ 4 µg/mL) | 1.42 (≈ 2 µg/mL) | 1.42 (≈ 2 µg/mL) | CC(C)C[C@H](NC(=O)[C@H](CCCCN)NC(=O)[C@H](CCCCN)NC(=O)[C@H](CC(C)C)NC(=O)[C@H](Cc1c[nH]c2ccccc12)NC(=O)[C@H](CCCCN)NC(=O)[C@H](CC(C)C)NC(=O)[C@H](CC(C)C)NC(=O)[C@H](CCCCN)NC(=O)[C@H](CCCCN)NC(=O)[C@@H](N)CC(C)C)C(N)=O [LKKLLKWLKKL] | –
9 | – | – | ≥ 32.2 | 32.2 (≈ 40 µg/mL) | 32.2 (≈ 40 µg/mL) | ≥ 64.4 | ≥ 64.4 | 8.05 (≈ 9.99 µg/mL) | 32.2 (≈ 40 µg/mL) | > 64.4 | ≥ 64.4 | ≥ 64.4 | CC(C)C[C@H](NC(=O)[C@H](Cc1c[nH]c2ccccc12)NC(=O)[C@H](CCCCN)NC(=O)[C@H](CCCCN)NC(=O)[C@H](CC(C)C)NC(=O)[C@H](Cc1c[nH]c2ccccc12)NC(=O)[C@H](CCCCN)NC(=O)[C@@H](N)CC(C)C)C(=O)N[C@@H](CCCCN)C(N)=O [LKWLKKWLK] | –
10 | – | – | 1.42 (≈ 2 µg/mL) | 2.84 (≈ 4 µg/mL) | 1.42 (≈ 2 µg/mL) | 2.84 (≈ 4 µg/mL) | 5.67 (≈ 7.99 µg/mL) | 1.42 (≈ 2 µg/mL) | 5.67 (≈ 7.99 µg/mL) | 1.42 (≈ 2 µg/mL) | 1.42 (≈ 2 µg/mL) | 1.42 (≈ 2 µg/mL) | CC(C)C[C@H](NC(=O)[C@H](CC(C)C)NC(=O)[C@H](CCCCN)NC(=O)[C@H](CCCCN)NC(=O)[C@H](CC(C)C)NC(=O)[C@H](CC(C)C)NC(=O)[C@H](CCCCN)NC(=O)[C@H](CCCCN)NC(=O)[C@H](CC(C)C)NC(=O)[C@@H](N)Cc1c[nH]c2ccccc12)C(=O)N[C@@H](CCCCN)C(N)=O [WLKKLLKKLLK] | –
